Data set [1] concerns cardiomyocytes isolated from mouse heart. Briefly: Inhibition of unstimulated calcium release events in cardiomyocytes (isoproterenol-induced). It counts as cell-based, C57BL/6 mice. The following applies: Cardiomyocyte, 10 μM compound, isoproterenol 1 uM, percent inhibition of controls B vs A. The protocol: Compounds of the disclosure were evaluated for an effect on isoproterenol-induced inhibition of unstimulated calcium release events in cardiomyocytes isolated from mouse heart.
Adult cardiomyocytes are isolated from female, 28-32 grams C57BL/6 mice using a perfusion solution containing Liberase TH (Sigma Aldrich, #05-401-151001). After isolation, Ca^2+ is reintroduced in 5 steps at 4 min intervals. Then cells are plating (Time Cero) with a density of 5000-7000 rod cells in 100 μl of Cardiomyocyte Culture Medium (MEM, Invitrogen, #11575-032) containing Blebbistatin and compound treatment at various concentrations (0.01 to 10 uM). After 1 hrs of compound treatment cells are treated with Isoproterenol (1 uM). After 2 hrs of compound treatment cells are loaded with a Ca^2+ indicator (Fluo-4-AM, Invitrogen #F14202). After 3 hrs of compound treatment MEM is quickly but gently removed and the cells re-suspended in recording solution (Ca^2+ 2 mM, Isoproterenol 1 uM) for field stimulations using custom-designed electrodes. Cells are stimulated for 20 seconds at 0.5 Hz, then for 5 seconds at 5 Hz.
One Study=3 experiments. One experiment=1 mouse. Each experiment has 3 controls in triplicate: • A) Ca^2+ • B) Ca^2++Isoproterenol • C) Ca^2++Isoproterenol+Control Compound.
The first step in the analysis is to determine the number of responders based on four conditions. Responders are then analyzed to determine the number of unstimulated calcium release events, which are peaks of sufficient intensity, measured in the post-5 Hz stimulation period. Effect of test compounds (Ca^2++Isoproterenol+Test Compound in triplicate) are expressed as a percent inhibition of the controls B vs A.
All compounds were tested at 10 μM.

Data set [2] has as its target T1, RyR2 (Homo sapiens, UniProt Q92736). Briefly: 35S-labelled Calstabin2 binding to human HD cortex microsomes, dose curve. The following applies: FIG. 2.
Target sequence in this assay (Q92736 whole entry): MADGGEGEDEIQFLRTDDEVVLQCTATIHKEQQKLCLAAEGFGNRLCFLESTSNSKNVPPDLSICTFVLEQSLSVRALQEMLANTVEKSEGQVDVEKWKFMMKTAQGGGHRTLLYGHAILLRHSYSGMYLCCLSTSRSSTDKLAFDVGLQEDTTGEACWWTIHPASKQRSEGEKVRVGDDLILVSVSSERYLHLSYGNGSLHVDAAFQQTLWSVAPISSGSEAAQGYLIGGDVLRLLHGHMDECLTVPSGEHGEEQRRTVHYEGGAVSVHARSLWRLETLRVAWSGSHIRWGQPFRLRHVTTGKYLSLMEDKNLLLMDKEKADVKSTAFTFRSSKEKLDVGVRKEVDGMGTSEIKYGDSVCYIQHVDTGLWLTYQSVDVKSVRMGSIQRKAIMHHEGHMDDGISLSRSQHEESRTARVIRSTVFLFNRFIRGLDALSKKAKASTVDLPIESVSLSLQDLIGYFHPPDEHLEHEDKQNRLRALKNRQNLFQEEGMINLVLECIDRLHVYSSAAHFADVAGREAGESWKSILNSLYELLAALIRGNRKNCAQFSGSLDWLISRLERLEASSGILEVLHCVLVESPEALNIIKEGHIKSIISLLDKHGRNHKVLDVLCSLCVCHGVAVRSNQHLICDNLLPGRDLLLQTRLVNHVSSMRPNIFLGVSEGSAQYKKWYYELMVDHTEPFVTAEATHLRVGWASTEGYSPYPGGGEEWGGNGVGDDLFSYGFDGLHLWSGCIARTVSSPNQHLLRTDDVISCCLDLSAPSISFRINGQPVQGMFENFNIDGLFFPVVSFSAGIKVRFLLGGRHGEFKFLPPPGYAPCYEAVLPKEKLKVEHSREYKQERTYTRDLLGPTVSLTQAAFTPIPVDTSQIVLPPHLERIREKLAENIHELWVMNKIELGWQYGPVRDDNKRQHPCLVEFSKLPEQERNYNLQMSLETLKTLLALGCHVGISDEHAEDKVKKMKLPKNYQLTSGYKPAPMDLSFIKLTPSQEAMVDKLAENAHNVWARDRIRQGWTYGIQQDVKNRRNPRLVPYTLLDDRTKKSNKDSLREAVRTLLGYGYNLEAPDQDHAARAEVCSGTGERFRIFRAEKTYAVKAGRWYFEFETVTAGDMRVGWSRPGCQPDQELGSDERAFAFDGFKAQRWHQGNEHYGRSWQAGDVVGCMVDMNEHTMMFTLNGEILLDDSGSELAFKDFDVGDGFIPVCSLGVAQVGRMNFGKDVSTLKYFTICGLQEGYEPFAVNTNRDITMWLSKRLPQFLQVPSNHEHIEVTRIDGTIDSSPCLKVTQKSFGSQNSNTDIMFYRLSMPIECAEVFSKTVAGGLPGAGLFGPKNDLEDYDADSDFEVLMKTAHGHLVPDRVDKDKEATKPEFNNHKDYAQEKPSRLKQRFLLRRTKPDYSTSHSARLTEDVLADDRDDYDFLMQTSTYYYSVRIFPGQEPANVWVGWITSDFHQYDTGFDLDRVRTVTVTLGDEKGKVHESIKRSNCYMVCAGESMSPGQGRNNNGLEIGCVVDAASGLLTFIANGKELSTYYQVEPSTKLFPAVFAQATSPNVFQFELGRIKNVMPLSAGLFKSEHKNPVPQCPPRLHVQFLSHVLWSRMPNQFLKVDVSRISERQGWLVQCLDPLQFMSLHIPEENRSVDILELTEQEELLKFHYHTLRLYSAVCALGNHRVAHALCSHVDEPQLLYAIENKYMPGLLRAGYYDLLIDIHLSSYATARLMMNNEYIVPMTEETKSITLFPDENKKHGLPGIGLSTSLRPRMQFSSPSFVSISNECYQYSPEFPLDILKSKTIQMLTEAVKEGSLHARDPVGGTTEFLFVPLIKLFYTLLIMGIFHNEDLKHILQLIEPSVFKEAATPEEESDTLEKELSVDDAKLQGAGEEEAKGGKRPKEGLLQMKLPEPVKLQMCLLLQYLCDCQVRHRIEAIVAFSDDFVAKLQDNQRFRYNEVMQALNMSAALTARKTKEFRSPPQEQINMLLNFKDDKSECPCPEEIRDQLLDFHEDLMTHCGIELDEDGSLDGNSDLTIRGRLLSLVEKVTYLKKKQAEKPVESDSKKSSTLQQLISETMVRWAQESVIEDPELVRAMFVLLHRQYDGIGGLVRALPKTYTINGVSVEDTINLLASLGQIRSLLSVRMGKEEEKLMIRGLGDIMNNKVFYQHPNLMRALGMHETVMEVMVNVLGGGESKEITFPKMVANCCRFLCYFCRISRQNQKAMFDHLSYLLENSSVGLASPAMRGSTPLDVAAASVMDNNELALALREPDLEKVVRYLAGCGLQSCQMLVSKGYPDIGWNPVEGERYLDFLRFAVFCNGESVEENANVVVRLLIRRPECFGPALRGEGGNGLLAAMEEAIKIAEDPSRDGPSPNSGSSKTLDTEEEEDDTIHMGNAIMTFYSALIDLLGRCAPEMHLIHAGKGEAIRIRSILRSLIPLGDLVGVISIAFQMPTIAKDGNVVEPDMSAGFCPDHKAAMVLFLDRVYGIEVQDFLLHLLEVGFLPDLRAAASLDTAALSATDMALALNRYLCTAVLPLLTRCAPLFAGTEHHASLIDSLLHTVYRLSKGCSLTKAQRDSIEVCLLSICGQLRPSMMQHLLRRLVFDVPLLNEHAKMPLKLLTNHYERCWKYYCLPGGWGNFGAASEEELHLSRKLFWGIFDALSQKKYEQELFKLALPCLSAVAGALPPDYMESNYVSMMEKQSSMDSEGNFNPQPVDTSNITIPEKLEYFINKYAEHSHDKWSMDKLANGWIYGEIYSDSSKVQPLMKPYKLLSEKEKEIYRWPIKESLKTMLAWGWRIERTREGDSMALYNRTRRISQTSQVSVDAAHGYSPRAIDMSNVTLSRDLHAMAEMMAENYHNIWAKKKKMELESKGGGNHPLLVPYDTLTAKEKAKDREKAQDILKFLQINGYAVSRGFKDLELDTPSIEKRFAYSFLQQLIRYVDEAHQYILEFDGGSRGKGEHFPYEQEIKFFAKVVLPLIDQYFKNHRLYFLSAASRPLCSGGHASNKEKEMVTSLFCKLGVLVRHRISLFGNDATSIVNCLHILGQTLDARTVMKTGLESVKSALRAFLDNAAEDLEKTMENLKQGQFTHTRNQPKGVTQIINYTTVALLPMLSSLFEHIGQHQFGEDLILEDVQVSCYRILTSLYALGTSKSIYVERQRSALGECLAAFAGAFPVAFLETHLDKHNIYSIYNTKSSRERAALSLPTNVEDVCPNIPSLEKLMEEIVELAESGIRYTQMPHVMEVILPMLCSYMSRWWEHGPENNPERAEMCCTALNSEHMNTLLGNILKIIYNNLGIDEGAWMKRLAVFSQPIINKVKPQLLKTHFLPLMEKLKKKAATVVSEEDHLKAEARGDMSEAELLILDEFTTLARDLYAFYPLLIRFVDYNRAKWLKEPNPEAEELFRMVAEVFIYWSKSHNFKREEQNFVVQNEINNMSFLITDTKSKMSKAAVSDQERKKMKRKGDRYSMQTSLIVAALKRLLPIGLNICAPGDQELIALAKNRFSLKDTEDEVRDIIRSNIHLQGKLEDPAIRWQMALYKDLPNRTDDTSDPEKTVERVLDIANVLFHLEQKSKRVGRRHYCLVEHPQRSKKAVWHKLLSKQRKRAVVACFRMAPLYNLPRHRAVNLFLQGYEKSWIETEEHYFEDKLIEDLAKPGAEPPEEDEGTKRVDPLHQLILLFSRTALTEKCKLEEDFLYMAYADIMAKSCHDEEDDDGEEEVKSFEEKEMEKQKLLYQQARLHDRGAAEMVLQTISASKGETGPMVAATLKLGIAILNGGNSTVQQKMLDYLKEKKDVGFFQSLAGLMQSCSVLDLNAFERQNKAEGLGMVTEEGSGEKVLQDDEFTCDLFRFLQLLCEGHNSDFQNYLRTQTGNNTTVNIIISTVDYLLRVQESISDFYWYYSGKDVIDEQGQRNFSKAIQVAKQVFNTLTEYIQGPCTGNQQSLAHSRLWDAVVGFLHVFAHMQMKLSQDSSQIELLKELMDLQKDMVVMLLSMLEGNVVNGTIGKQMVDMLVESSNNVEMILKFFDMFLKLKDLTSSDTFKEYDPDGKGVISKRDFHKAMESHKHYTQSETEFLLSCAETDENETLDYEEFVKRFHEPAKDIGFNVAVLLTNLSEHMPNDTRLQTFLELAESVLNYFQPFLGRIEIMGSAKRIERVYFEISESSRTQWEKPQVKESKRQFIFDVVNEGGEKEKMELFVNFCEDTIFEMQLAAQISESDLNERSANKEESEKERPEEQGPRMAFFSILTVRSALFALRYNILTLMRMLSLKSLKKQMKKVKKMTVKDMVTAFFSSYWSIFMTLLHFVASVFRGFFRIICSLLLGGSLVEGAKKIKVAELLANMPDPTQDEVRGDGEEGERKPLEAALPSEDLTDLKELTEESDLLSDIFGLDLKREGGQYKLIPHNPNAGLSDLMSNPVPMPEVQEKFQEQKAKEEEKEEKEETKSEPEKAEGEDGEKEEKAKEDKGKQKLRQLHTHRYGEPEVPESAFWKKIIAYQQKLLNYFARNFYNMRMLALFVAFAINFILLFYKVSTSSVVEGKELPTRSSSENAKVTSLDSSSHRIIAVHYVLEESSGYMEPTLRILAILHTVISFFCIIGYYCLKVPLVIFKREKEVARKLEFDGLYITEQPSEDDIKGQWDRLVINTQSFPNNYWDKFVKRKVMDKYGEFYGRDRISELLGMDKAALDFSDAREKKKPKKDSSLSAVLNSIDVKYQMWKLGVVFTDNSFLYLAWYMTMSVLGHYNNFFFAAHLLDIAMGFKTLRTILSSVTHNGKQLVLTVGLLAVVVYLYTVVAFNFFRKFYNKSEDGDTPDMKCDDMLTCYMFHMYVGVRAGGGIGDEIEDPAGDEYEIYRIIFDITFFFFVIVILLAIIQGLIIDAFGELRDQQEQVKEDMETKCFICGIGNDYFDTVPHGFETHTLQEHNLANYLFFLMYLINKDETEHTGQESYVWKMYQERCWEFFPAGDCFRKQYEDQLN
Target sequence in this assay (P68106 whole entry, further chain): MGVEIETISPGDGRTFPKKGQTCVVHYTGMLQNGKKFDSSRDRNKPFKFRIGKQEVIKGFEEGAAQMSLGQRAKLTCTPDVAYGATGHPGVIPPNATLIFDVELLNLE
Data set [3] is described as follows: Pharmacokinetics by intravenous (IV) dosing (tail vein). Type of data set: in vivo, rat. How it is done:
Additional PK parameters were obtained using IV dosing to complement the oral PK data and to determine absolute oral bioavailability. Compounds were administered via tail vein injection and blood samples were obtained at 30 min, 1 h, 4 h and 12h. The drug concentration in plasma was determined via UPLC/MS.
(§1) The concentration results were used to estimate PK parameters (i.e. C0, T1/2, Vd, AUCinf) based on noncompartmental distribution and mono-exponential concentration decay. The half-life value thus obtained was also used to estimate the AUCinf for the PO dosing.

In data set [4] the target is T1, RyR2. Briefly: Calstabin2 binding to RyR2 immunoprecipitated from human HD cortex lysate (immunoblot). The following applies: FIG. 1. The protocol:
Brain microsomes were prepared from human hippocampus and cortex samples taken from HD patients. Control samples were from patients that were negative in neuropathological diagnoses.
RyR2 was immunoprecipitated from Cortex lysate (+/−various concentrations of Compound 2) with an RyR2 specific antibody (2 μg) in 0.5 ml of a modified RIPA buffer (50 mM Tris-HCl pH 7.2 0.9% NaCl, 5.0 mM NaF, 1.0 mM Na3VO4, 1% Triton-X100, and protease inhibitors) and left overnight at 4° C. The immune complexes were incubated with protein A Sepharose beads at 4° C. for 1 h and the beads are washed three times with RIPA buffer. […] Immunoblots were developed using antibodies against RyR and Calstabin.
A general note: A western blot detects proteins with antibodies after separation by electrophoresis.

A short description of data set [5]: Oral bioavailability and pharmacokinetics in blood plasma after oral gavage. It counts as in vivo, Sprague-Dawley rats. The conditions noted are these: Sprague-Dawley; for Cmax: po. How it is done:
(§2) Analytical instrument: Waters Acquity Class H UPLC equipped with Waters SQ3100 mass detector.
1). Initial non-terminal assessment of compound oral bioavailability and pharmacokinetics in blood plasma.
Sprague-Dawley rats were dosed via oral gavage (20 mg/kg); blood samples were drawn at 30 min, 1 h, 4 h and 12 h and plasma concentrations were determined via UPLC/MS. The 12-hour exposure (AUC12, Table 2) was determined via trapezoidal integration of the observed concentrations.
as §1

Data set [6] in a line: Brain exposure: brain and plasma concentrations 4 h after oral administration. It counts as in vivo. The conditions noted are these: Sprague-Dawley, rat, PO 20 mg/kg; for concentration at 4 h: terminal sampling. The protocol: as §2
Brain and plasma concentrations 4 h after oral administration (corresponding to Tmax in the first experiment) were determined via UPLC/MS, and the corresponding brain-to-plasma ratio values were calculated.

The nature of data set [7]: Morning and evening plasma and brain exposure after 1-week dosing in drinking water. It counts as in vivo. The following applies: rat; for Brain / Plasma: 1 week.
Another data set has as its system RyR. Briefly: RyR mediated calcium leak from human HD cortex microsomes (Fluo-4, thapsigargin). Type of data set: biochemical. The following applies: thapsigargin 3 μM, FIG. 3. How it is done:
Human cortex Microsomes (5 μg/ml) were diluted into a 20 mM HEPES buffer (pH 7.2) containing 7 mM NaCl, 1.5 mM MgCl2, 120 mM K-gluconate, 5 mM K-phosphate, 8 mM K-phosphocreatine, 1 μM EGTA and 2 μM CaCl2) mixed with 3 μM Fluo-4 and added to multiple wells of a 96-well plate. Calcium (Ca^2+) loading of the microsomes was initiated by adding 1 mM ATP. After Ca^2+ uptake, 3 μM thapsigargin was added. (A)—Representative traces of Ca^2+ leak from Human cortex microsomes induced by addition of thapsigargin (3 μM). (B)—Ca^2+ leak was calculated as the percent increase in signal after addition of thapsigargin. Data (mean±SEM) analysis was performed by Student t-test (n=2 for each group) **P<0.01.

In data set [8] the target is T1, RyR2. Briefly: biochemical.
Target sequence in this assay (Q92736 whole entry): as the sequence (Q92736 whole entry) above
Target sequence in this assay (P68106 whole entry, further chain): as the sequence (P68106 whole entry, further chain) above
The mark [9] stands for this setting: 5 mg/kg/day in drinking water, 7:00AM, 5 mg/kg/day.
Setting [10] is: 5 mg/kg/day in drinking water, 7:00PM, 5 mg/kg/day.
[11] abbreviates: 20 mg/kg/day in drinking water, 7:00AM, 20 mg/kg/day.
Setting [12] is: 20 mg/kg/day in drinking water, 7:00PM, 20 mg/kg/day.

Values joined by “and” are separate entries in the source; they are usually repeats but may differ in a detail not shown here. Equal values may be shown once. “Also recorded” adds a separate entry of the source. Read-outs that look alike come from different tables or passages of the source.

Usually inhibition stands for the drop in the measured response relative to a control, in per cent. Turning to `O=C(N1CCNCC1)N1CCSc2ccc(OC(F)(F)F)cc2C1` [Compound 4, piperazin-1-yl(7-(trifluoromethoxy)-2,3-dihydrobenzo[f][1,4]thiazepin-4(5H)-yl)methanone], the inhibition at 10 µM in data set [1] is 142%.

For the molecule `O=C(N1CCNCC1)N1CCSc2c(cccc2C(F)(F)F)C1` [Compound 3, piperazin-1-yl(9-(trifluoromethyl)-2,3-dihydrobenzo[f][1,4]thiazepin-4(5H)-yl)methanone], in [1], the inhibition at 10 µM is 85%.

For the molecule `O=C(N1CCNCC1)N1CCSc2cccc(I)c2C1` [Compound 10, (6-iodo-2,3-dihydrobenzo[f][1,4]thiazepin-4(5H)-yl)(piperazin-1-yl)methanone], in data set [1], the inhibition at 10 µM amounted to 74%.

For the molecule `O=C(N1CCNCC1)N1CCSc2cccc(Cl)c2C1` [Compound 7, (6-chloro-2,3-dihydrobenzo[f][1,4]thiazepin-4(5H)-yl)(piperazin-1-yl)methanone], the inhibition at 10 µM in data set [1] is 89%.

A word on the Vd: it is the apparent volume that relates the amount in the body to the concentration in plasma or blood. As usually defined, the AUC(0-inf) is the area under the concentration-time curve extrapolated to infinity. Lower therefore signals less exposure. For orientation: Cmax means the highest concentration seen after dosing. One may read the Tmax as the time at which the peak concentration occurs. As usually defined, the Kp is the ratio of the level in a tissue or fluid to that in plasma or blood. Usually EC50 stands for the concentration needed to bring the measured effect to its halfway point. The low end stands for a more potent agent, the high end for a less potent agent. In the case of `O=C(N1CCNCC1)N1CCSc2ccc(C(F)(F)F)cc2C1` [Compound 2, piperazin-1-yl(7-(trifluoromethyl)-2,3-dihydrobenzo[f][1,4]thiazepin-4(5H)-yl) methanone], the “Calstabin2 binding to HD microsomes, concentration dependence” value on RyR2 [2] is listed as “increase Calstabin2 binding to HD microsomes in a concentration dependent manner”. Further, the volume of distribution (Vd) in [3] (plasma, rat, IV bolus 2 mg/kg) came out at 10.9 L/kg. Moreover, the half-life in data set [3] (plasma, rat, IV bolus 2 mg/kg, read-out: T½ (converted)) is 166 min. Further, the area under the curve AUC(0-inf) was 736 ng·h/mL in data set [3] (rat plasma, IV bolus 2 mg/kg) and 2730 ng·h/mL in [5] (rat, plasma, oral, 20 mg/kg). Also, the concentration at 30 min in data set [3] (rat plasma, IV bolus 2 mg/kg, 30 min, read-out: C 1st time (30 min)) was found to be 180 ng/mL. Also, the “F % PO/IV bolus” value in data set [3] (rat, PO 20 mg/kg vs IV bolus 2 mg/kg) came to 37%. The “Calstabin2/RyR2 binding in HD brain microsome lysates” value on RyR2 [4] is reported as “improves Calstabin2/RyR2 binding; also recorded: improves Calstabin rebinding to RyR2”. The peak concentration (Cmax) is 320 ng/mL in [5] (rat, plasma, 20 mg/kg, rat plasma, PO 20 mg/kg, Table 4 summary, read-out: Cmax C4 h); 210 ng/mL and 610 nM in data set [5] (rat, plasma, 20 mg/kg, rat plasma, PO 20 mg/kg, read-out: Cmax). For the same molecule, the Tmax in data set [5] (rat plasma, PO 20 mg/kg) came out at 4 h. Also, in [5] (rat plasma, PO 20 mg/kg, 12 h, trapezoidal, read-out: AUCt (12 h)), the AUC(0-t) was 2090 ng·h/mL and 6.06 µM·h. Further, the inhibition at 10 µM in [1] lay in the range of 86 to 94%. Besides, the concentration at 4 h in data set [6] (brain, read-out: Brain C4 h) was 2160 ng/g and 6.25 µM; in data set [6] (plasma, read-out: Plasma C4 h), 420 ng/mL and 1.22 µM. This molecule also displayed a concentration ratio (Kp) at 4 h in data set [6] (brain/plasma) of 5.1. The Brain in data set [7] (setting [9]) was 0.50 ± 0.12 μg/g and 1.44 ± 0.36 μM; in data set [7] (setting [10]) it was 0.12 ± 0.08 μg/g and 0.36 ± 0.22 μM; in data set [7] (setting [11]), 3.05 ± 0.71 μg/g and 8.82 ± 2.05 μM; in [7] (setting [12]), 1.20 ± 0.96 μg/g and 3.48 ± 2.79 μM. The Plasma in [7] (setting [9]) was 0.09 ± 0.03 μg/mL and 0.25 ± 0.08 μM; in data set [7] (setting [10]), 0.02 ± 0.01 μg/mL and 0.07 ± 0.02 μM; in data set [7] (setting [11]), 0.42 ± 0.02 μg/mL and 1.22 ± 0.05 μM; in [7] (setting [12]), 0.20 ± 0.12 μg/mL and 0.58 ± 0.36 μM. The “brain exposure after a week of dosing” value in data set [7] (1 week in drinking water) was “has brain exposure”. Also, the “plasma and tissue exposure levels, morning versus evening” value in data set [7] (1 week in drinking water) is recorded as “higher in the morning than in the evening”. In addition, in the data set on RyR, the “calcium leak from HD microsomes” value is “decreases calcium leak from HD microsomes”. Moreover, the concentration for a half-maximal effect (EC50) at RyR2 [8] came to 100 nM.

In the case of `O=C(N1CCNCC1)N1CCSc2cc(C(F)(F)F)ccc2C1` [Compound 1, piperazin-1-yl(8-(trifluoromethyl)-2,3-dihydrobenzo[f][1,4]thiazepin-4(5H)-yl)methanone], in [1], the inhibition at 10 µM lay within 95 to 96%.

For the molecule `COc1ccc2c(c1)CN(C)CCS2` [Compound S107, reference compound], the “Calstabin2 binding to HD microsomes, concentration dependence” value on RyR2 [2] was “increase Calstabin2 binding to HD microsomes in a concentration dependent manner”.

Turning to `O=C(N1CCNCC1)N1CCSc2cc(F)c(F)cc2C1` [Compound 6, (7,8-difluoro-2,3-dihydrobenzo[f][1,4]thiazepin-4(5H)-yl)(piperazin-1-yl)methanone], in [1], the inhibition at 10 µM was 71%.

As to `O=C(N1CCNCC1)N1CCSc2cccc(OC(F)(F)F)c2C1` [Compound 8, piperazin-1-yl(6-(trifluoromethoxy)-2,3-dihydrobenzo[f][1,4]thiazepin-4(5H)-yl)methanone], in data set [1], the inhibition at 10 µM was found to be 80%.

Take `O=C(N1CCNCC1)N1CCSc2cccc(Br)c2C1` [Compound 9, (6-bromo-2,3-dihydrobenzo[f][1,4]thiazepin-4(5H)-yl)(piperazin-1-yl)methanone]: in [1], the inhibition at 10 µM is 89%.

Regarding `O=C(N1CCNCC1)N1CCSc2cccc(C(F)(F)F)c2C1` [Compound 5, piperazin-1-yl(6-(trifluoromethyl)-2,3-dihydrobenzo[f][1,4]thiazepin-4(5H)-yl)methanone], the inhibition at 10 µM in [1] was determined as 92%.

The values are drawn from US20230399324A1, “AGENTS FOR TREATING DISORDERS INVOLVING RYANODINE RECEPTORS” (ARMGO Pharma, Inc., priority 2020, published 2023).
